Entries after “also recorded” stand apart in the source; their conditions may differ. No end group written: not given here.

One data set has as its system laminin. Nature of the data set: Laminin stimulation, ELISA on fibroblast cell lines. In kind it is cell-based. How it is done:
Fibroblast cell lines were cultured under standard conditions and assayed for collagen and laminin using an ELISA system manufactured by Panvera (Madison, Wis.). Antibodies for collagen and laminin manufactured by Takara Shuzo Co., Ltd Japan. […] The other three peptides tested neither stimulated nor inhibited production (i.e. no effect was observed).

Another data set has as its system E. coli UB1005. Type of data set: cell-based, Escherichia coli. As to conditions: mean of three; 16 to 20 hours at 35° C.; in µg/mL.
Another data set has as its system S. typhimurium 14028S. Type of data set: cell-based, Salmonella typhimurium. The conditions noted are these: mean of three; 16 to 20 hours at 35° C.; in µg/mL.
The test system of a further data set is P. aeruginosa H374. Type of data set: cell-based, Pseudomonas aeruginosa. The conditions noted are these: mean of three; 16 to 20 hours at 35° C.
Another data set relates to S. epidermidis C621. Type of data set: cell-based, Staphylococcus epidermidis. As to conditions: mean of three; 16 to 20 hours at 35° C.
The next data set deals with S. aureus (MRSA). In kind it is cell-based, Staphylococcus aureus. As to conditions: mean of three; 16 to 20 hours at 35° C.
The next data set in a line: in vitro. As to conditions: human, human red blood cells, pH 7, hemolytic assay, concentration at 50% hemolysis, 1 hour at 37° C.; read-out: LD50. Type of data set: cell-based, human.
The subject of a further data set is S. pneumoniae C718. Nature of the data set: Antimicrobial assays II, NCCLS broth microdilution MIC. As to conditions: mean of three. In kind it is cell-based, Streptococcus pneumoniae.
Another data set concerns S. pyogenes ATCC19615. The description is as above. In kind it is cell-based, Streptococcus pyogenes. The conditions noted are these: mean of three, in µg/mL.
Another data set relates to P. acne ATCC 6919. The data set is described as above. In kind it is cell-based, Propionibacterium acnes. The conditions noted are these: mean of three, in µg/mL.
Data set [1] relates to hairless rat skin burn wound. Nature of the data set: In vivo wound healing, TCA chemically induced skin burn wound. The conditions noted are these: for Epidermal thickening / Fibroblast cells in test area / Inflammatory response area / Leukocyte cells in test area / Wound closure: rat model, TCA burn treated by peptide; for Wound closure: 26 days. From the text:
The hairless rat was chosen as a suitable test model. Female hairless rats of 100 to 150 grams weight and 8 to 12 weeks age were used in the study.
As an alternative, 70% trichloroacetic (TCA) dissolved in 70% ethanol was employed to induce the dermal erosion patches. […] As the chemical burn agent, the TCA treatment inflicted on the rats far less trauma and mortality than occurred with the Phenol model.
The experimental Protocol procedure steps were as follows: • 1. The animal was anesthetized (40 mg/kg Phenobarbital). • 2. Color photographs of the animal's back (with six separate peels) were taken before each treatment and daily thereafter. • 3. Rat skin surface was prepared by wiping with 70% ethanol. Filter paper discs (1.1 cm diameter) were soaked in 70% TCA/ethanol. • 4. The discs were placed on the back of the hairless rat for 30 minutes [6 disks providing for 2 control (no peptide treatment) disks and 4 disks for peels to receive peptide treatment.] • 5. After a 30 minute burn the discs were removed. Twenty four hours later, different peptide solutions (1500 ppm in saline) were applied to four peels, and saline was applied to the two control peels. • 6. Peptide solutions (and saline for the controls) were applied to the six wounds with a soft brush each day thereafter. • 7. It took approximately one month for the wounds to heal (complete skin closure with stabilized epidermis), after which the animal was sacrificed. • 8. The treated skin was harvested, section stained with trichrome, and mounted on slides.
The percentage of wound closure for each peel (six sites) was measured each day until the animal was sacrificed. The percentage closure was determined by measuring on the animal photographs the area of the remaining scab relative to the area of the initial scar after the burn. These measurements were made by digitizing and analyzing the peels using the Sigma Plot ProScan 4 program.
This provided a measure of the post-TCA burn treatment of the inflammatory response in each peel site.
The extent of epidermal thickening (hyperkeratosis) at each site was also determined by measurement with the Sigma Plot program applied to the stained section slides of the various wound areas and the normal untreated skin (control) surrounding the peels. At magnifications of 100× to 320×, the microphotographs of the color slides provided a powerful tool for such quantification of the extent of hyperkeratosis evident in each peel.
Treatment of the section slides with selective stains produced identifiable evidence of the presence of both leukocyte and fibroblast cells in the wound areas. This was also quantified by the Sigma Plot program.
The above described animal model and protocols were employed in the testing of approximately 20 of the peptides listed in Table 48 (and other peptides for comparison) as preferred FLAK peptides for wound healing.

In turn, “MPKWKVFKKIEKVGRNIRNGIVKAGPAIAVLGEAKALG-NH2 [P12, reference compound]” had a Laminin stimulation with laminin of 0%. Besides, in the data set with E. coli UB1005, the “E. coli UB1005 MIC” value is 1. The “S. typhimurium 14028S MIC” value with S. typhimurium 14028S was 4. The substance further returned a P. aeruginosa H374 MIC in the data set with P. aeruginosa H374 of 8 µg/mL.
“FAVGLRAIKRALKKLRRGVRKVAKDL-NH2 [P157, reference compound]” showed a S. epidermidis C621 MIC with S. epidermidis C621 of 4 µg/mL. Further, the S. aureus (MRSA) MIC in the data set with S. aureus (MRSA) is 32 µg/mL. For the same substance, the HC50 at 1 h in the data set “in vitro” was 850 µg/mL. Also, in the data set on E. coli UB1005, the “E. coli UB1005 MIC” value stood at 8. The S. pneumoniae MIC in the data set with S. pneumoniae C718 was 128 µg/mL. Also, the “S. pyogenes MIC” value with S. pyogenes ATCC19615 worked out at 8. Further, the “P. acne MIC” value with P. acne ATCC 6919 is listed as 4. For the same substance, the “S. typhimurium 14028S MIC” value in the data set on S. typhimurium 14028S is reported as 8. Further, in data set [1], the Epidermal thickening is listed as 80 % of control (TCA only), the “Fibroblast cells in test area” value is recorded as 450 % of normal skin, the Inflammatory response area is 25 % of healed scar and the “Leukocyte cells in test area” value is recorded as 265 % of normal skin. Also, in data set [1], the Wound closure is on record as 95.2 % of initial wound. In the data set on P. aeruginosa H374, this substance yielded a P. aeruginosa H374 MIC of 8 µg/mL.
Regarding FALKALKKLKKALKKAL-NH2 [P153], the S. epidermidis C621 MIC in the data set with S. epidermidis C621 is 4 µg/mL. In the data set on S. aureus (MRSA), this substance gave a S. aureus (MRSA) MIC of 16 µg/mL. The HC50 at 1 h in the data set “in vitro” turned out to be 800 µg/mL. Besides, the Laminin stimulation with laminin came out at 32%. Further, in the data set with S. pneumoniae C718, the S. pneumoniae MIC came to 32 µg/mL. In the data set with S. pyogenes ATCC19615, the “S. pyogenes MIC” value is recorded as 2. For the same substance, the “P. acne MIC” value in the data set with P. acne ATCC 6919 stood at 4. Besides, the “rate of wound closure” value in [1] (hairless rat, full wound closure at 26 days) is “small advantage in rate of wound closure over the other peptides and no peptide”. Further, the “ability to limit post-TCA burn inflammatory responses” value in data set [1] (hairless rat, peptide solutions 1500 ppm in saline, topical daily) is on record as “superior in this respect”. Further, the “hyperkeratosis (epidermal thickening)” value in data set [1] (hairless rat, peptide solutions 1500 ppm in saline, topical daily, listed as SEQ ID NO:115) was “lowest evidence of hyperkeratosis (epidermal thickening); also recorded: substantially no hyperkeratosis as compared to the TCA burn untreated control”. Moreover, in data set [1], the Epidermal thickening is recorded as 25 % of control (TCA only), the “Fibroblast cells in test area” value was 350 % of normal skin, the Inflammatory response area is given as 7 % of healed scar and the “Leukocyte cells in test area” value was 235 % of normal skin. The Wound closure in data set [1] is recorded as 99.1 % of initial wound.

The values are drawn from patent US20050209157A1, “Short bioactive peptides and methods for their use” (priority 2001, published 2005).
